Values quoted from earlier work, collected in US7695734B2, “Extended release tablet formulation containing pramipexole or a pharmaceutically acceptable salt thereof” (Boehringer Ingelheim International GmbH, priority 2004, dated 2010).

What was measured:
[1] = light
dopamine D2 receptor = dopamine D2 receptor (Homo sapiens, UniProt P14416)
dopamine D2 receptor, sequence (P14416 whole entry, species assumed): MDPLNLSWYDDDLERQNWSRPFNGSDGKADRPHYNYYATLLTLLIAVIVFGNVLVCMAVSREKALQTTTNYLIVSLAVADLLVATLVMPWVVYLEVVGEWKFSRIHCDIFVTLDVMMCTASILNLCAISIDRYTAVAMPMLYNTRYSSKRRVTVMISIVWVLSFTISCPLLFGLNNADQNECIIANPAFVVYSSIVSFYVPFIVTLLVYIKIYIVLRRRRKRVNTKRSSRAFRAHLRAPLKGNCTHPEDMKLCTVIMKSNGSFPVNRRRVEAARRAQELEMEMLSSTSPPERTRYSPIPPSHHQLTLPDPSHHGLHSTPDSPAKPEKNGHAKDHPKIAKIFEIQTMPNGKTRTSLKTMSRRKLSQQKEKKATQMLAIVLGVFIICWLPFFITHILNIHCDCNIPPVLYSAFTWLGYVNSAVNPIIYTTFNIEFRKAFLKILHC

## CCCN[C@H]1CCc2nc(N)sc2C1 [Pramipexole, (S)-2-amino-4,5,6,7-tetrahydro-6-(propylamino)benzothiazole]
[1]
  stability in solution: light sensitive
Dopamine D2 receptor; dopamine D2 receptor
  agonist activity: full agonist
Dopamine D2 receptor; dopamine receptors
  receptor selectivity: receptor selectivity for the dopamine D2 family of dopamine receptors
